We go through 6 molecules from patent US8716242B2, “β-hairpin peptidomimetics” (priority 2009, dated 2014).

One data set concerns the target T1, human CXCR4 (Homo sapiens, UniProt P61073).
T1 construct: expressed in transfected cells; host or cells: mouse pre-B cell line 300-19
The data set can be described thus: Ca2+-assay: CXCR4-antagonizing activity (SDF-1 induced calcium mobilization). The format is cell-based. Conditions: mouse pre-B cell line 300-19 transfected with human CXCR4; SDF-1 induced Ca2+ mobilization; read-out: IC50% [nM] ± SD, CXCR4 receptor. An outline of the steps:
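Mouse pre-B 300-19 cells stably expressing human CXCR4, loaded with Calcium 4 dye in HBSS/20 mM HEPES pH 7.4/0.1% BSA for 1 h at RT. Peptides added before SDF-1; fluorescence (ex 485/em 525 nm) followed for 90 s. IC50 from four-parameter logistic fit of % maximal SDF-1 response.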

The nature of data set [1]: Plasma stability in human plasma. Conditions: human plasma, 37° C.; for remaining at 24 h, 10 μM: 1440 min, read-out: human pl. cpd left at 1440 min. The format is in vitro ADME. The method in brief: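 Peptides (1 mM DMSO/H2O stock) were spiked into human or mouse plasma in triplicate and incubated at 37 °C, sampling from 0 to 1440 min. Samples were quenched in formic acid/acetonitrile and analysed by LC/MS MRM. Remaining percent of t=0 was calculated and T1/2 derived by trend fitting.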

A short description of data set [2]: Cytotoxicity, MTT reduction assay, COS-7 cells. The format is cell-based. The conditions noted are these: African green monkey, COS-7 cells (CRL-1651), 12.5-50 μM. The method in brief: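 HELA (4000/well) and COS-7 (3400/well) cells were grown 24 h, then exposed 48 h at 37° C to peptides at 12.5, 25 and 50 μM in triplicate. MTT reduction read at 595 nm; growth % relative to time-zero, and GI50 interpolated by trend line.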

Data set [3] has as its system human red blood cells (hRBC). Description: Hemolysis of human red blood cells. The format is cell-based. Conditions: 20% hRBC, 1 h, 37° C. The method in brief:
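Washed fresh human erythrocytes (20% v/v, ~0.9×10^9 cells/mL final) incubated with compound at 100 μM for 1 h at 37 °C with shaking. Supernatant OD540 read; % hemolysis expressed relative to 2.5% Triton X-100 lysis (100%), with PBS/0.001% acetic acid as 0%.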

Each structure is given as a SMILES string. Numbered stars: 1 amine (or outer) side, 2 acyl side, 3 side chain; on linkers, the order of the positions; unused ones are H or OH. Bridge positions count the residues as written; N and C are the ends. Square brackets hold non-standard residues; d marks the D form. Side chains are listed from the residue outwards. Peptide text beside a SMILES is read from it. * marks the point of attachment. γGlu = O=C(O)[C@H](CCC(=O)[*:2])N[*:1]; Palmitoyl = CCCCCCCCCCCCCCCC(=O)*; Myristoyl = CCCCCCCCCCCCCC(=O)*; Lauroyl = CCCCCCCCCCCC(=O)*; Dab = NCC[C@H](N)C(=O)O

T1 sequence (P61073 whole entry): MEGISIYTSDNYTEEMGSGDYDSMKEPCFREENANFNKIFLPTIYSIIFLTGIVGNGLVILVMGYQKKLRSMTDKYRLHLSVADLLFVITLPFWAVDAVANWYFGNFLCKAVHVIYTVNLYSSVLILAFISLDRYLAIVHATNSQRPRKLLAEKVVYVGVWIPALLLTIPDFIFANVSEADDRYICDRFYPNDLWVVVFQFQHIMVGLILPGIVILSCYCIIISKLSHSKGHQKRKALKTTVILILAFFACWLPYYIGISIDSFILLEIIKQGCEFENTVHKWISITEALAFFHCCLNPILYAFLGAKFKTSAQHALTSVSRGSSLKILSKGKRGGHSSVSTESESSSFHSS

For `CCCCCCCCCCCCCC(=O)N[C@@H](CCC(=O)NCCCC[C@@H]1NC(=O)[C@H](Cc2ccc(O)cc2)NC(=O)[C@@H]2CSSC[C@H](NC(=O)[C@H](Cc3ccc(O)cc3)NC(=O)[C@H](Cc3c[nH]cn3)NC(=O)[C@H](Cc3ccc(O)cc3)NC(=O)[C@@H]3CCCN3C(=O)[C@H]3CCCN3C(=O)[C@H](CCCCN)NC1=O)C(=O)N[C@@H](CO)C(=O)N[C@@H](C)C(=O)N1CCC[C@@H]1C(=O)N[C@@H](CCN)C(=O)N[C@@H](CCCNC(=N)N)C(=O)N[C@@H](Cc1ccc(O)cc1)C(=O)N2)C(=O)O` [Ex. 28] (cyclo(YHYCSA[dP][Dab]RYCYK([γGlu-Myristoyl])K[dP]P); disulfide 4-11), the IC50 at human CXCR4 is 2.1 ± 0.1 nM. The remaining at 24 h, 10 μM in data set [1] came out at 80%. For the same molecule, the half-life at 10 μM in data set [1] (up to 1440 min, read-out: human pl. T1/2) came out at 19.1 h. Also, in data set [2], the 50% growth inhibitory concentration (GI50) at 48 h was > 50000 nM. Further, the “Hemolysis at 100 μM” value in data set [3] stood at 1.9%.

Regarding `CCCCCCCCCCCCCCCC(=O)N[C@@H](CCC(=O)NCCCC[C@@H]1NC(=O)[C@H](Cc2ccc(O)cc2)NC(=O)[C@@H]2CSSC[C@H](NC(=O)[C@H](Cc3ccc(O)cc3)NC(=O)[C@H](Cc3c[nH]cn3)NC(=O)[C@H](Cc3ccc(O)cc3)NC(=O)[C@@H]3CCCN3C(=O)[C@H]3CCCN3C(=O)[C@H](CCCCN)NC1=O)C(=O)N[C@@H](CO)C(=O)N[C@@H](C)C(=O)N1CCC[C@@H]1C(=O)N[C@@H](CCN)C(=O)N[C@@H](CCCNC(=N)N)C(=O)N[C@@H](Cc1ccc(O)cc1)C(=O)N2)C(=O)O` [Ex. 29] (cyclo(YHYCSA[dP][Dab]RYCYK([γGlu-Palmitoyl])K[dP]P); disulfide 4-11), the IC50 on human CXCR4 worked out at 1.9 ± 0.8 nM. For the same molecule, the remaining at 24 h, 10 μM in data set [1] came to 74%. Also, in data set [1] (up to 1440 min), the “human pl. T1/2” value is 24 h. Further, in data set [2], the GI50 at 48 h was > 50000 nM. Besides, in data set [3], the “Hemolysis at 100 μM” value is recorded as 5.4%.

With `CCCCCCCCCCCC(=O)NCCCC[C@@H]1NC(=O)[C@H](Cc2ccc(O)cc2)NC(=O)[C@@H]2CSSC[C@H](NC(=O)[C@H](C)NC(=O)[C@H](Cc3c[nH]cn3)NC(=O)[C@H](Cc3ccc(O)cc3)NC(=O)[C@@H]3CCCN3C(=O)[C@H]3CCCN3C(=O)[C@H](CCCCN)NC1=O)C(=O)N[C@@H](CCCNC(=N)N)C(=O)N[C@@H](C)C(=O)N1CCC[C@@H]1C(=O)N[C@@H](CCN)C(=O)N[C@@H](CCCNC(=N)N)C(=O)N[C@@H](Cc1ccc(O)cc1)C(=O)N2` [Ex. 17] (cyclo(YHACRA[dP][Dab]RYCYK(Lauroyl)K[dP]P); disulfide 4-11), the IC50 on human CXCR4 turned out to be 2.8 ± 0.4 nM. The remaining at 24 h, 10 μM in data set [1] amounted to 65%. Also, the “human pl. T1/2” value in data set [1] (up to 1440 min) was determined as 24 h. Besides, the GI50 at 48 h in data set [2] is > 50000 nM. Moreover, in data set [3], the “Hemolysis at 100 μM” value amounted to 4.3%.

As to `CCCCCCCCCCCC(=O)N[C@@H](CCC(=O)NCCCC[C@@H]1NC(=O)[C@H](Cc2ccc(O)cc2)NC(=O)[C@@H]2CSSC[C@H](NC(=O)[C@H](C)NC(=O)[C@H](Cc3c[nH]cn3)NC(=O)[C@H](Cc3ccc(O)cc3)NC(=O)[C@@H]3CCCN3C(=O)[C@H]3CCCN3C(=O)[C@H](CCCCN)NC1=O)C(=O)N[C@@H](CCCNC(=N)N)C(=O)N[C@@H](C)C(=O)N1CCC[C@@H]1C(=O)N[C@@H](CCN)C(=O)N[C@@H](CCCNC(=N)N)C(=O)N[C@@H](Cc1ccc(O)cc1)C(=O)N2)C(=O)O` [Ex. 26] (cyclo(YHACRA[dP][Dab]RYCYK([γGlu-Lauroyl])K[dP]P); disulfide 4-11), the IC50 at human CXCR4 came to 2.4 ± 0.5 nM. Moreover, in data set [1], the remaining at 24 h, 10 μM was 82%. The “human pl. T1/2” value in data set [1] (up to 1440 min) was found to be 24 h. Also, in data set [2], the GI50 at 48 h is > 50000 nM. Besides, the “Hemolysis at 100 μM” value in data set [3] was 1.2%.

In the case of `CCCCCCCCCCCC(=O)N[C@@H](CCC(=O)NCCCC[C@@H]1NC(=O)[C@H](Cc2ccc(O)cc2)NC(=O)[C@@H]2CSSC[C@H](NC(=O)[C@H](Cc3ccc(O)cc3)NC(=O)[C@H](Cc3c[nH]cn3)NC(=O)[C@H](Cc3ccc(O)cc3)NC(=O)[C@@H]3CCCN3C(=O)[C@H]3CCCN3C(=O)[C@H](CCCCN)NC1=O)C(=O)N[C@@H](CO)C(=O)N[C@@H](C)C(=O)N1CCC[C@@H]1C(=O)N[C@@H](CCN)C(=O)N[C@@H](CCCNC(=N)N)C(=O)N[C@@H](Cc1ccc(O)cc1)C(=O)N2)C(=O)O` [Ex. 25] (cyclo(YHYCSA[dP][Dab]RYCYK([γGlu-Lauroyl])K[dP]P); disulfide 4-11), the concentration for half-maximal inhibition (IC50) at human CXCR4 was determined as 3.5 ± 0.1 nM. The remaining at 24 h, 10 μM in data set [1] turned out to be 78%. For the same molecule, in data set [1] (up to 1440 min), the “human pl. T1/2” value stood at 24 h. Moreover, the GI50 at 48 h in data set [2] was > 50000 nM. Moreover, the “Hemolysis at 100 μM” value in data set [3] is listed as 1.0%.

`CCCCCCCCCCCCCCCC(=O)NCCCC[C@@H]1NC(=O)[C@H](Cc2ccc(O)cc2)NC(=O)[C@@H]2CSSC[C@H](NC(=O)[C@H](Cc3ccc(O)cc3)NC(=O)[C@H](Cc3c[nH]cn3)NC(=O)[C@H](Cc3ccc(O)cc3)NC(=O)[C@@H]3CCCN3C(=O)[C@H]3CCCN3C(=O)[C@H](CCCCN)NC1=O)C(=O)N[C@@H](CO)C(=O)N[C@@H](C)C(=O)N1CCC[C@@H]1C(=O)N[C@@H](CCN)C(=O)N[C@@H](CCCNC(=N)N)C(=O)N[C@@H](Cc1ccc(O)cc1)C(=O)N2` [Ex. 20] (cyclo(YHYCSA[dP][Dab]RYCYK(Palmitoyl)K[dP]P); disulfide 4-11): the IC50 on human CXCR4 stood at 4 ± 1.8 nM. For the same molecule, in data set [1], the remaining at 24 h, 10 μM was determined as 54%. The “human pl. T1/2” value in data set [1] (up to 1440 min) came out at 24 h. The GI50 at 48 h in data set [2] was > 50000 nM. Moreover, the “Hemolysis at 100 μM” value in data set [3] amounted to 9.1%.
